This is an account of results in patent publication US11571397B2, “Compositions and methods for treating seizure-induced sudden death” (ZOGENIX INTERNATIONAL LIMITED, priority 2018, dated 2023).

The test system of assay [1] is DBA mice. To be noted: cited from earlier work; for seizure-induced respiratory failure and death: DBA mice, dose-dependent.
The subject of assay [2] is DBA/1 mice. Nature of the assay: Reversal of FFA's anticonvulsant and S-IRA blocking effects by selective 5-HT receptor antagonists in DBA/1 mice. It is filed as in vivo, mouse. The procedure:
(§1) For these experiments, DBA/1 mice (N=287) were used (after subjecting to the established priming procedure to assure consistent susceptibility to S-IRA following AGSz) to assess the effects of fenfluramine on various 5-HT receptors. Seizures were induced using an electrical bell, and resuscitation was accomplished using a rodent respirator (Faingold et al., 2010). At least 24 hours after priming, the mice received FFA (15 mg/kg, i.p.) and were tested for AGSz and S-IRA susceptibility 16 hours later. Thirty minutes prior to AGSz induction, a selective 5-HT receptor antagonist or vehicle was administered to evaluate if a specific receptor contributes to the ability of FFA to block S-IRA. Seizure behaviors were recorded on videotape, quantified, and compared statistically with vehicle-treated negative and FFA-treated positive controls (Chi-Square Test; significance set at p<0.05).
Specifically, the antagonists tested were: the 5-HT1A antagonist WAY100635 (0.1-15 mg/kg); the 5-HT2 antagonist Ritanserin (10-20 mg/kg); the 5-HT3 antagonist Ondansetron (1-3 mg/kg); the 5-HT4 antagonist GR125487 (20-60 mg/kg); the 5-HT5A antagonist SB669551 (10-20 mg/kg); and the 5-HT7 antagonist SB269970 (30-40 mg/kg). Studies investigating the effect of 5-HT6 and 5-HT1a/1b antagonists are also underway.
as §1, with “mice” for “mice (N=287)”

Where [3] appears, read: dietary supplementation, DBA/1 mice.

Regarding `N[C@@H](Cc1c[nH]c2ccc(O)cc12)C(=O)O` [5-hydroxytryptophan], in assay [1] (setting [3]), the S-IRA result is reported as “blocked” and the “incidence of AGSz behaviors” value was “significantly reduced”.

`COc1[nH]c2ccc(F)cc2c1C(=O)OCC1CCN(CCNS(C)(=O)=O)CC1` [GR125487]: the “reversal of the FFA-induced S-IRA blockade” value in assay [2] (antagonist 30 mg/kg, 30 min before AGSz, FFA 15 mg/kg i.p. 16 h before, p<0.05) is “partial reversal”. In addition, the “reversal of FFA's anticonvulsant effect against the severity of AGSz” value (“reversal of FFA's anticonvulsant effect” below) in assay [2] (antagonist 30 and 60 mg/kg, FFA 15 mg/kg) is “able to reverse”.

Consider `Cc1nccn1CC1CCc2c(c3ccccc3n2C)C1=O` (centres unmarked) [Ondansetron], for which, in assay [2] (antagonist 1-3 mg/kg, FFA 15 mg/kg), the “reversal of FFA's effect” value is “not effective at any dose tested”. As to `Cc1nc2sccn2c(=O)c1CCN1CCC(=C(c2ccc(F)cc2)c2ccc(F)cc2)CC1` [Ritanserin], the “reversal of FFA's anticonvulsant effect” value in assay [2] (antagonist 20 mg/kg, FFA 15 mg/kg) was “able to reverse”. As for `CC1CCN(CC[C@H]2CCCN2S(=O)(=O)c2cccc(O)c2)CC1` [SB269970], the “reversal of FFA's anticonvulsant effect” value in assay [2] (antagonist 30 mg/kg and 40 mg/kg, FFA 15 mg/kg) is listed as “able to reverse”. Regarding `CN(C)CCN(Cc1ccc(-c2ccc(CNCCc3ccccc3)cc2)cc1)C(=O)CCC1CCCC1` [SB669551], in assay [2] (antagonist at 20 mg/kg, FFA 15 mg/kg), the “effect on FFA's anticonvulsant effect” value is listed as “blocked”. `COc1ccccc1N1CCN(CCN(C(=O)C2CCCCC2)c2ccccn2)CC1` [WAY100635]: the “reversal of FFA's effect” value in assay [2] (antagonist 0.1-15 mg/kg, FFA 15 mg/kg) is listed as “not effective at any dose tested”. `CNCC[C@@H](Oc1ccccc1C)c1ccccc1` [atomoxetine]: in assay [1], the “seizure-induced respiratory failure and death” value is “prevent”.

In the case of `CNCCC(Oc1ccc(C(F)(F)F)cc1)c1ccccc1` (centres unmarked) [fluoxetine], the “seizure-induced respiratory failure and death” value in assay [1] was “prevent”.

As for `COCCCC/C(=N\OCCN)c1ccc(C(F)(F)F)cc1` [fluvoxamine], the “seizure-induced respiratory failure and death” value in assay [1] is recorded as “prevent”. As to `CN[C@H]1CC[C@@H](c2ccc(Cl)c(Cl)c2)c2ccccc21` [sertraline], the “seizure-induced respiratory failure and death” value in assay [1] is “prevent”. With `COc1ccc(C(CN(C)C)C2(O)CCCCC2)cc1` (centres unmarked) [venlafaxine], the “seizure-induced respiratory failure and death” value in assay [1] is on record as “prevent”.
